Experiments:
[1] = Subjective sedation score on numeric rating scale (NRS) 0-10 after midazolam (Example #1); format: in vivo, human
Description: Subjective sedation was scored by a numeric rating scale (NRS) 0-10, where 0 is fully awake and 10 is falling asleep or as tired as you can imagine at 0, 2, 5, 10, 15, 20, 25, 30, 35, 45, 60, 90, 120 and 360 minutes after administration.

[2] = Blood plasma pharmacokinetics of midazolam for three administration systems (Example #1); details: for Cl (obs) / Vz (obs): not corrected for bio-availability; for bio-availability: mean (95% CI); for AUC(0-t): AUClast
Description: In this study, twelve healthy subjects, 4 male and 8 female, were studied.
In separate sessions, the subjects received 3.4 mg of midazolam by one of three different administration systems, these being: • (i) an intravenous administration system in which a midazolam formulation was intravenously administered; • (ii) a conventional nasal spray administration system in which a midazolam formulation was conventionally nasally administered using a spray pump as supplied by Ing Erich Pfeiffer GmbH (Radolfsee, Germany) which is specified to generate a liquid spray with a mean particle size of 43 μm, with 100 μl of the formulation being delivered to each nostril; and • (iii) the bi-directional administration system of the first-described embodiment, and incorporating the same spray pump as the conventional nasal spray administration system, in which a midazolam formulation was nasally administered, with 100 μl of the formulation being delivered to each nostril.
Each study session was six hours in duration, and the sessions were separated by at least one week.
The intravenous formulation was a commercial midazolam HCl formulation (1 mg/ml (free base)) as supplied by Alpharma Inc (New Jersey, USA).
The nasal formulation was an aqueous solution containing midazolam base (1.7% w/v), sulfobutylether-β-cyclodextrin sodium salt with a molar substitution of 6.2 (Captisol®) (14% w/v) as supplied by CyDex Inc (Kansas, USA), hydroxypropyl methylcellulose (0.1% w/v), benzalkonium chloride (0.02% w/v), ethylene diaminetetraacetic acid (0.1% w/v) and phosphoric acid (0.73% w/v). The pH of the formulation was adjusted to a pH of between 4.20 and 4.35 with sodium hydroxide.
Venous blood samples, each having a volume of 9 ml, were drawn just prior to administration and at 2, 5, 10, 15, 20, 25, 30, 35, 45, 60, 90, 120, 240 and 360 minutes after administration, in order to allow for a determination of the blood plasma concentration of midazolam.
The blood plasma concentration of midazolam was determined according to Martens et al.
Samples, spiked with diazepam as an internal standard, were alkalised and extracted by toluene containing 0.1% w/v amyl alcohol. The resulting organic phase for each of the samples was then evaporated and the residue for each of the samples was derivatized with TBDMSTFA (/tert/-Butyldimethylsilyl)-N-methyltrifluoroacetamide with 1% w/v tert-butyldimethylsilyllchloride) at 60 °C. After the excess of TBDMSTFA was evaporated, the residue for each of the samples was dissolved in ethyl acetate and analyzed in a gas chromatograph, in this embodiment an HP 5890 gas chromatograph equipped with an HP 5972 mass-spectrometry detector as supplied by Hewlett Packard Inc (USA). The midazolam and diazepam components were quantified by the mass ions 310 and 256, respectively.
In this study, the midazolam clearance, the volume of distribution, the elimination rate, the maximum plasma concentration Cmax, the time maximum plasma concentration Tmax, and the area under the curve AUC (linear trapezoidal rule) were calculated by computerized curve fitting using the Win-Nonlin Standard 4.1 as supplied by Pharsight Corporation (California, USA). The systemic clearance (Cl)=dose/AUCiv, the apparent nasal clearances (Cln)=dose/AUCn, and the respective bioavailabilities (Fx)=(AUCx/dosey)/(AUCy/dosex) were determined from the calculated values.
In the results, the data is given as a median (min-max) or a mean (95% confidence interval (CI)). Regression analysis and ANOVA were used as appropriate. A bi-variate correlation (Pearson) was used to determine associations between variables. A paired sample t-test was used for group comparisons.

[3] = bi-directional nasal administration system, 3.4 mg, mean
[4] = both, human, plasma, inhaled or intranasal, 3.4 mg, bi-directional nasal administration system, mean
[5] = both, human, plasma, inhaled or intranasal, 3.4 mg, conventional nasal spray administration system, mean
[6] = both, human, plasma, iv, 3.4 mg
[7] = both, human, plasma, iv, 3.4 mg, intravenous administration system, mean
[8] = conventional nasal spray administration system, 3.4 mg, mean

## Cc1ncc2n1-c1ccc(Cl)cc1C(c1ccccc1F)=NC2 [midazolam]
[1]; bi-directional administration system compared with conventional nasal spray
  CNS effect (sedation score as a function of blood plasma concentration): substantially greater CNS effect than the conventional nasal spray administration system
[1]; bi-directional administration system compared with intravenous, 3.4 mg, median NRS
  sedation scores: equivalent to those of the intravenous administration system
[1]; bi-directional administration system compared with the other systems, 3.4 mg
  onset of action: considerably faster than the conventional nasal spray administration system
[1]; bi-directional administration system, 3.4 mg
  ratio of peak CNS effect to Cmax relative to intravenous administration: about 3.5 times
[2]; [3]
  AUCinf: 5364 ng·min/mL
  Cl (obs): 589 mL/min
  Vz (obs): 98551 mL
[2]; bi-directional spray administration system vs intravenous
  bio-availability: 0.69 (0.57, 0.81)
[2]; both, human, plasma, inhaled or intranasal, 3.4 mg
  AUC(0-inf): 87.8 ng·h/mL
[2]; [4]
  AUC(0-t): 76.9 ng·h/mL
  Cmax: 44 ng/mL
  Tmax: 0.267 h
[2]; [5]
  AUC(0-t): 77.1 ng·h/mL
  Cmax: 53 ng/mL
  Tmax: 0.25 h
[2]; both, human, plasma, inhaled or intranasal, 3.4 mg, T1/2, bi-directional nasal administration system, mean
  half-life: 1.98 h
[2]; both, human, plasma, inhaled or intranasal, 3.4 mg, T1/2, conventional nasal spray administration system, mean
  half-life: 1.9 h
[2]; [6]
  AUC(0-inf): 136 ng·h/mL
  Vd: 65.4 L
  clearance: 451 mL/min
[2]; [7]
  AUC(0-t): 122 ng·h/mL
  Cmax: 152 ng/mL
  Tmax: 0.0417 h
[2]; both, human, plasma, iv, 3.4 mg, T1/2, intravenous administration system, mean
  half-life: 1.73 h
[2]; [8]
  Cl (obs): 551 mL/min
  Vz (obs): 90691 mL
[2]; conventional spray administration system vs intravenous
  bio-availability: 0.68 (037, 0.80)
